The values that follow come from patent US20110105554A1, “MEANS FOR TREATING MYOSIN-RELATED DISEASES” (KINARIS BIOMEDICALS GMBH, priority 2007, published 2011).

In one assay the target is T1, DdMyosin-5b (Dictyostelium discoideum, UniProt P54697).
T1 construct: comprising amino acids 1-698, 1-765, and 1-839 respectively; made in house
Nature of the assay: mantATP binding to DdMyosin-5b (stopped-flow). Here is the method: Effect of Pentabromopseudilin on ATP binding kinetics to DdMyosin-5b and acto-DdMyosin-5b. (FIG. 10a) Fluorescence transients obtained upon mixing 1 μM DdMyosin-5b with 10 μM mantATP in the absence and presence of 5 μM, 25 μM, 50 μM and 100 μM PBP. Mant-fluorescence was excited at 365 nm and detected after passing through a KV 389 nm cut-off filter. The fluorescent signal of mantATP binding to DdMyosin-5b in the absence of PBP follows a single exponential function (upper curve). The presence of increasing concentrations of PBP lead to reduced amplitudes of the fluorescent signals that are best fit by double exponentials. (FIG. 10b) Plot of the relative amplitudes of mantATP binding to Dd Myosin-5b at different PBP concentrations. […] (FIG. 10c) Fluorescence transients of the ATP induced dissociation of pyrene-acto-DdMyosin-5b in the absence (black curve) and presence (grey curve) of 50 μM PBP. (FIG. 10d) Quench-flow experiments of the ATP hydrolysis reaction upon mixing 5 μM M761 with 25 μM ATP in the absence (solid squares) and presence (open circles) of 50 μM PBP. […]
The binding and hydrolysis of ATP and mantATP, respectively by myosin head fragments were analyzed in terms of the seven-step model described by Bagshaw and coworkers (4). Transients in the presence of actin were analyzed according to the mechanisms described in references 5 and 6.

The subject of assay [1] is human hepatocyte carcinoma cells (Hep G2). Nature of the assay: cells. The following applies: Homo sapiens, HepG2, 4 h, read-out: half effective concentration EC50, neutral red uptake. Here is the method: Cytotoxicity may be assayed by determining the cellular uptake of neutral red. Only living cells are capable of neutral red uptake via an active transport mechanism. For an exemplary workflow of a cytotoxicity assay, see FIG. 16.
FIG. 16: Cytotoxicity assay.
FIG. 22: Cytotoxic testing of KIN-compounds by neutral red uptake assays. (a) human hepatocyte carcinoma cells (Hep G2) were exposed to KIN-43 for 4 h in the in presence of 1% FBS.
We are using a library of common organic molecules and functional groups and are applying an empirical force field description of the nonbonding interactions between a ligand and the binding site in order to build up de novo compounds with spatial and electrostatic properties complementary to the allosteric binding site.

The target of a further assay is chicken myosin-5a (Gallus gallus, UniProt Q02440). Nature of the assay: In vitro motility assay (actin filament sliding), myosin-5a. The assay is classed as biochemical. The following applies: 10 μM PBP. Here is the method:
(b) Inhibition of chicken myosin-5a by PBP in the in vitro motility assay. The histograms show the average sliding velocity of Rh/Ph-labeled actin filaments in the absence and presence of 10 μM PBP. Myosin-5a moves actin filaments with an average velocity of 0.6 μm/s±0.05 (dark bars); addition of 10 μM PBP into the same flow cell decreases the average sliding velocity to 0.013 μm/s±0.002 (light grey bars).
The extent and order of isoform-specific differences in the potency of the inhibitor were additionally confirmed by the results of in vitro motility assays). […] (FIG. 11a) Myosin-5a moves actin filaments with an average velocity of 0.6 μm/s±0.05 (dark bars); addition of 10 μM PBP into the same flow cell lead to a 46-fold reduction of the average sliding velocity to 0.013 μm/s±0.002 (light grey bars).
Direct functional Assays. Actin-sliding motility was performed at 25° C. using an Olympus IX81 inverted fluorescence microscope. Experimental flow cells were constructed using bovine serum albumin (0.5 mg/ml in assay buffer)-coated glass slides and nitrocellulose-coated coverslips. Myosins were actin affinity-purified immediately before use, to remove rigor heads^20. […] Average sliding velocity was determined from the Gaussian distribution of automatically tracked actin filaments using DiaTrack 3.0 and Origin 7.0.

The next assay deals with T2, Dictyostelium myosin-1E (Dictyostelium discoideum, UniProt Q03479).
T2 construct: comprising amino acids 1-698, 1-765, and 1-839 respectively; made in house
T2 sequence (Q03479 1-698): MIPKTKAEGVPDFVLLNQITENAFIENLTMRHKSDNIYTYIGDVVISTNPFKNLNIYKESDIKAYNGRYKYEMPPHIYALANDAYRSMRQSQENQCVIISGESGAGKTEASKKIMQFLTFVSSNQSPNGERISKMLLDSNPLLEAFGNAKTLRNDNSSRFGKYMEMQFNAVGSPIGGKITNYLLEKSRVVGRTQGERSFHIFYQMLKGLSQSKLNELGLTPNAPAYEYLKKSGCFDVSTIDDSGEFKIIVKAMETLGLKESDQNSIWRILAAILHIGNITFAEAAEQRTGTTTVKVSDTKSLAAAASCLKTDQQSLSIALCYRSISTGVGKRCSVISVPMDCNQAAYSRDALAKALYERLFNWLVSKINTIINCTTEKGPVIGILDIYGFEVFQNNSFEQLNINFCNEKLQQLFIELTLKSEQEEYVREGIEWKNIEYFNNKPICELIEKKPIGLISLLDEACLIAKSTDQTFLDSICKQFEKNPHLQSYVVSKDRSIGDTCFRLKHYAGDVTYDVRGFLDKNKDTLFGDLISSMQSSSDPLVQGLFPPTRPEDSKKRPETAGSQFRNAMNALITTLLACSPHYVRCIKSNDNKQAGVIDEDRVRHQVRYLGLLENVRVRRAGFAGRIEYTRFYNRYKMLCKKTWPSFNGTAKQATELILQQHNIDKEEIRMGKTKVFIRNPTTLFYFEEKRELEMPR
Kind of assay: Actin-activated ATPase activity (NADH-coupled assay), Dictyostelium myosin-1E. The assay is classed as biochemical. Here is the method: Based on the structure of the myosin-2 motor domain with bound PBP, we performed molecular modeling studies to elucidate the specificity of PBP-binding to myosins from different classes. […] To test the predictions from the modeling studies, we determined actin-activated ATPase activities in the presence of 0 to 150 μM PBP with rabbit skeletal myosin-2 heavy meromyosin (HMM), myosin-5a isolated from chicken brain, and recombinant Dictyostelium myosin class-1, 2 and 5 motor-domain constructs (FIG. 9a). […] The concentrations of PBP required for half-maximal inhibition of the different myosin motors was calculated from fitting the data to hyperbolae. […] To determine the extend to which PBP impairs the coupling between the actin- and nucleotide-binding sites of myosin, we measured the ATP turn-over rates of Dictyostelium myosin-2 and myosin-5b motor domain constructs over the range from 0 to 50 μM F-actin in the absence and presence of 25 μM PBP.
Protein preparation. Rabbit fast skeletal muscle heavy meromyosin (HMM) was prepared as described by Kron and Spudich^9. […]
Steady-state kinetics. Basal and actin-activated Mg^2+-ATPase activities were measured with the NADH-coupled assay^19 in a buffer containing 25 mM HEPES, 25 mM KCl, and 4 mM MgCl2, 0.5 mM DTT at pH 7.0 in the presence of 1 mM ATP at 25° C. […]

Molecules are shown by their SMILES.

chicken myosin-5a, sequence (Q02440 1-764): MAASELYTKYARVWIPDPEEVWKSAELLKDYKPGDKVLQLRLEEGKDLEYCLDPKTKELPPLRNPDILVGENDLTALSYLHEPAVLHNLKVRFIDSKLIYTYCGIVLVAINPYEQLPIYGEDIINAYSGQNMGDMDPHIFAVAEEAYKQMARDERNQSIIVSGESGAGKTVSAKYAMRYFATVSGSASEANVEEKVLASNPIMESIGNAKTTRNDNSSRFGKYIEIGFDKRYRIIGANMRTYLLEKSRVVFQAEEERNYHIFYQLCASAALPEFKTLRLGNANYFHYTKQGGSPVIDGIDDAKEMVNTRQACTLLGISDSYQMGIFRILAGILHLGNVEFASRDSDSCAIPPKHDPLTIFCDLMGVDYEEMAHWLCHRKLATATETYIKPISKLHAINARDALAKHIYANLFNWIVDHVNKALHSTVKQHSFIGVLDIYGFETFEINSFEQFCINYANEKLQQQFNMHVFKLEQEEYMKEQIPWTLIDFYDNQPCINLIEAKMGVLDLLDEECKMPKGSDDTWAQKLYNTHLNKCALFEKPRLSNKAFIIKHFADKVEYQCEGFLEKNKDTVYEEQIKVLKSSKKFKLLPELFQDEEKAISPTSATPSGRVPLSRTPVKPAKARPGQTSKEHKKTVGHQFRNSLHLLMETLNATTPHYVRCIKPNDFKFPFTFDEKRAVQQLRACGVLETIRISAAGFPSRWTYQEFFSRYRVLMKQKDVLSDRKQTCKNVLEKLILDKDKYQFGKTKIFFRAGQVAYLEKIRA
T1 sequence (P54697 1-839): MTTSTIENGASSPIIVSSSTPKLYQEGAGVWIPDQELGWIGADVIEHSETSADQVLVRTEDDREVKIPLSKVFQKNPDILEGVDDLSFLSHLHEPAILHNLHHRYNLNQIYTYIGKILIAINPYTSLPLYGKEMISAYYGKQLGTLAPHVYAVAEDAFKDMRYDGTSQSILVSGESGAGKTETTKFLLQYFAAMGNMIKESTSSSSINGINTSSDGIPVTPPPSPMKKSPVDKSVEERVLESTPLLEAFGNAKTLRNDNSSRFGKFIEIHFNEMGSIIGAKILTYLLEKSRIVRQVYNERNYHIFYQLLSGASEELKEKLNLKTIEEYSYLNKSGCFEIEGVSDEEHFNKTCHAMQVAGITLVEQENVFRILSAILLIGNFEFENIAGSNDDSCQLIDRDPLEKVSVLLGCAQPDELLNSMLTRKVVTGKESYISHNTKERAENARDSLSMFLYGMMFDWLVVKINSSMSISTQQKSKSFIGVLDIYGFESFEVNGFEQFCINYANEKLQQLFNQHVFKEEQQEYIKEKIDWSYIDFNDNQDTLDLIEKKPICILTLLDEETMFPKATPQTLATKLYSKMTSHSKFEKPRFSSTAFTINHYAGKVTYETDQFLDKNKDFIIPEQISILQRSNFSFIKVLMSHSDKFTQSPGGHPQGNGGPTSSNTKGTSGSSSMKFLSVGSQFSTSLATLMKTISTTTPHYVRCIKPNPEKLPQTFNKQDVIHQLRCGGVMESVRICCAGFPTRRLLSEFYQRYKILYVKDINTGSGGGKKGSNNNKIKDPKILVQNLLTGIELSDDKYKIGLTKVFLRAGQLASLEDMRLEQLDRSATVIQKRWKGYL
Description for mammalian myosin-5a: In this context, preferred selectivity means a more than 20-fold smaller IC50 value compared to fast skeletal muscle myosin-2 and other references myosins.

Consider `Oc1c(Br)cc(Br)cc1-c1[nH]c(Br)c(Br)c1Br` [KIN-43], for which the Kd (usually a measure of binding affinity in units of concentration) on DdMyosin-5b turned out to be 21 ± 2 µM. Also, the EC50 in assay [1] is 0.03 µM. At chicken myosin-5a, the “fold reduction of the average sliding velocity” value is reported as 46 fold. The “average sliding velocity of actin filaments” value on chicken myosin-5a (0.6 μm/s without) was 0.013 μm/s. The “preferred selectivity: fold smaller IC50 compared to fast skeletal muscle myosin-2 and other reference myosins” value in the assay with mammalian myosin-5a is “more than 20 fold”. The Ki (commonly the equilibrium dissociation constant of an inhibitor or competing ligand from its target) on Dictyostelium myosin-1E was found to be 49.5 µM. The “ATPase activity at 30 μM F-actin in the presence of inhibitor” value at Dictyostelium myosin-1E (>100 μM PBP, 3.5 s^−1 without) was 0.10 s⁻¹.
